Assay results taken from publication PMC12016938, “A small molecule PKCε inhibitor reduces hyperalgesia induced by paclitaxel or opioid withdrawal” (JCI Insight, 2025).
≈ marks a conversion by molar mass, not a printed value. Where “and” joins values, the source holds several entries; their conditions need not be identical. Equal entries are not always repeated. Where two headings read alike, the source gives them in different places.

Legend:
PKCβII = target: T1, PKCβII (Homo sapiens, UniProt P05771); assay: Lance-FRET kinase assay, PKCβII; type: biochemical; conditions: Figure 1B
T1 construct: purchased SignalChem Biotech
Procedure: Kinase assays. CP612 was assayed against His-AVI–tagged human PKCε (1 nM) produced in Sf9 cells, and ROCK1 (Carna Biosciences; 5 nM) using the Lance-FRET kinase assay system (PerkinElmer Revvity). Other human recombinant PKCs (SignalChem Biotech) were assayed in triplicate at the following concentrations: PKCβII 1.6 nM, PKCγ 500 pM, PKCδ 5 nM, PKCθ 500 pM, and PKCζ 500 pM. PKCs were incubated in a 15 μL reaction volume with kinase buffer (20 mM Tris-HCL [pH 7.4], 10 mM MgCl2, 0.25 mM EGTA, 0.1 mg/mL BSA, and 0.15% Triton X-100), 50 nM ULight-labeled CREBtide […] (PerkinElmer, TRF0107, Revvity), and test compound. […] After incubation at 27°C for another 60 minutes, phosphorylation was detected using a FlexStation 3 Microplate Reader (Molecular Devices) in LANCE TR-FRET mode (excitation = 340 nm, emission = 665 nm) and expressed as relative fluorescence units (RFU). The percentage of inhibition was calculated as: (signal without test compound − signal with test compound)/(signal without test compound − signal without ATP) × 100. […]
Kinase assays used 11-point concentration-response curves and results were analyzed by nonlinear regression using Prism 9 (GraphPad Software) to determine IC50 values. […] Scores for pain threshold, conditioned place preference, and self-administration were analyzed by ANOVA using the following factors. […]

PKN1 (Protein kinase N1) = target: T2, PKN1 (Protein kinase N1) (Homo sapiens, UniProt Q16512); assay: scanMax kinome panel, PKN1; type: binding; conditions: 200 nM CP612; read-out: scanMax % of control, PKN1
T2 construct: purchased Eurofins-DiscoverX
Procedure: (§1) CP612 was screened for kinome specificity at 200 nM against 468 kinases using the scanMax assay panel from Eurofins-DiscoverX. CP612 inhibited 10 other WT kinases besides PKCε, all to < 10% of control: CLK1 (CDC Like Kinase 1), CLK4, PKN1 (Protein kinase N1), PKN2, PKCδ, PKCη, PKCθ, PRKG2 (Protein Kinase CGMP-Dependent 2), ROCK1, and ROCK2.

PKN2 = target: T3, PKN2 (Homo sapiens, UniProt Q16513); assay: scanMax kinome panel, PKN2; type: binding; conditions: 200 nM CP612
T3 construct: purchased Eurofins-DiscoverX
Procedure: as §1

[1] = Kinetic aqueous solubility; type: physicochemical
Procedure: Kinetic aqueous solubility. Test compounds were diluted 100-fold from 1 mM DMSO stocks into 0.1M phosphate-buffered saline (PBS) in triplicate. Diluted samples were shaken at room temperature at 600 rpm for 3 hours and then filtered by centrifugation (0.2 μm, PVDF) at 1,000g for 1 minute. Aliquots of 100 μL were diluted into 3 volumes of acetonitrile for extraction, vortexed for 15 seconds, centrifuged at 16,000g for 10 minutes at 4°C, and then analyzed by liquid chromatography–mass spectrometry (LC-MS).

[2] = system: hyperalgesia induced by morphine withdrawal; assay: Prevention of hyperalgesia due to morphine withdrawal, von Frey SUDO; type: in vivo, C57BL/6J mice; conditions: for von Frey filament number that led to paw withdrawal: prevention, individual mouse
Description: We next investigated if CP612 prevents hyperalgesia induced by withdrawal from repeated administration of morphine, in male and female C57BL/6J mice. […] These findings indicate that a single dose of the PKCε inhibitor can prevent hyperalgesia induced by opioid withdrawal.

T2 sequence (Q16512 whole entry): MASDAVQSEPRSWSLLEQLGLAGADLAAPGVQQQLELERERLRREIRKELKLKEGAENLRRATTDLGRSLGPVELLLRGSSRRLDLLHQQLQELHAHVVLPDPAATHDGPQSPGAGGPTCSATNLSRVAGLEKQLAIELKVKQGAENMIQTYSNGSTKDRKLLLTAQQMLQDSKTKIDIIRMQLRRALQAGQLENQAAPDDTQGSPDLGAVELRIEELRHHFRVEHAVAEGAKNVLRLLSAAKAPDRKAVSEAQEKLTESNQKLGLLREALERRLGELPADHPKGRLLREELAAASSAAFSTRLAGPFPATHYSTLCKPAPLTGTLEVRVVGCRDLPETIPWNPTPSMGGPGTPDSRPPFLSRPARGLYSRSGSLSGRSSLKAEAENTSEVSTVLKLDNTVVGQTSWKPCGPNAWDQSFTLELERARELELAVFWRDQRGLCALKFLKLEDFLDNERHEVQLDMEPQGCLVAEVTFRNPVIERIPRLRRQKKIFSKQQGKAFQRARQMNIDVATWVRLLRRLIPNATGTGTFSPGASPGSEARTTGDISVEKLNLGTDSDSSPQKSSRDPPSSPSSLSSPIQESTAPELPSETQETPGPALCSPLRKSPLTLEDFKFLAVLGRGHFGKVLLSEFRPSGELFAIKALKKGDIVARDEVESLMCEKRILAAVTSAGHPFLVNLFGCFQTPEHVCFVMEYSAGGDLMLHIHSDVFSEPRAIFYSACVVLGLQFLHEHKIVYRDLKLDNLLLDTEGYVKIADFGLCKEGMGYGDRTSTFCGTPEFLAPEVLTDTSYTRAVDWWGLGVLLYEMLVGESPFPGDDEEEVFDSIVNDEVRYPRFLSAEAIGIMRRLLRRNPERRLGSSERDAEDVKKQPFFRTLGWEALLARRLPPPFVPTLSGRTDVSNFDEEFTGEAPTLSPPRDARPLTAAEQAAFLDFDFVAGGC
T1 sequence (P05771 1-673 isoform P05771-2): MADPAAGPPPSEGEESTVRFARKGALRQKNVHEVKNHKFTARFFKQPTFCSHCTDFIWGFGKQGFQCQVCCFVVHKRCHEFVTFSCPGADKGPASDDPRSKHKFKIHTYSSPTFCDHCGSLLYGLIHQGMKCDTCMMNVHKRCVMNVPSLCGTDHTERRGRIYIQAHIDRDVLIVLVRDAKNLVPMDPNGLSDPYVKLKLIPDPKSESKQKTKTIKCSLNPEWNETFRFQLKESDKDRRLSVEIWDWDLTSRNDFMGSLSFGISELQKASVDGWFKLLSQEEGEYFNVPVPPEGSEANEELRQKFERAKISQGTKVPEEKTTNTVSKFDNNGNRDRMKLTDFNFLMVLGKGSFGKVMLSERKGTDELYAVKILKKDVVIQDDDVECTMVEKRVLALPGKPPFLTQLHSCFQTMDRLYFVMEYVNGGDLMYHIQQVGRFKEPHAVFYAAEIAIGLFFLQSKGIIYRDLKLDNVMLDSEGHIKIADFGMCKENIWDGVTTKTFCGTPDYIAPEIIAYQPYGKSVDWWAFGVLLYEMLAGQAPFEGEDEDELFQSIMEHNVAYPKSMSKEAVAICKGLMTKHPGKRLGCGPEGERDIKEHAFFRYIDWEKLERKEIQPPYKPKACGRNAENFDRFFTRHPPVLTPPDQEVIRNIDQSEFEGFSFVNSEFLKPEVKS
T3 sequence (Q16513 whole entry): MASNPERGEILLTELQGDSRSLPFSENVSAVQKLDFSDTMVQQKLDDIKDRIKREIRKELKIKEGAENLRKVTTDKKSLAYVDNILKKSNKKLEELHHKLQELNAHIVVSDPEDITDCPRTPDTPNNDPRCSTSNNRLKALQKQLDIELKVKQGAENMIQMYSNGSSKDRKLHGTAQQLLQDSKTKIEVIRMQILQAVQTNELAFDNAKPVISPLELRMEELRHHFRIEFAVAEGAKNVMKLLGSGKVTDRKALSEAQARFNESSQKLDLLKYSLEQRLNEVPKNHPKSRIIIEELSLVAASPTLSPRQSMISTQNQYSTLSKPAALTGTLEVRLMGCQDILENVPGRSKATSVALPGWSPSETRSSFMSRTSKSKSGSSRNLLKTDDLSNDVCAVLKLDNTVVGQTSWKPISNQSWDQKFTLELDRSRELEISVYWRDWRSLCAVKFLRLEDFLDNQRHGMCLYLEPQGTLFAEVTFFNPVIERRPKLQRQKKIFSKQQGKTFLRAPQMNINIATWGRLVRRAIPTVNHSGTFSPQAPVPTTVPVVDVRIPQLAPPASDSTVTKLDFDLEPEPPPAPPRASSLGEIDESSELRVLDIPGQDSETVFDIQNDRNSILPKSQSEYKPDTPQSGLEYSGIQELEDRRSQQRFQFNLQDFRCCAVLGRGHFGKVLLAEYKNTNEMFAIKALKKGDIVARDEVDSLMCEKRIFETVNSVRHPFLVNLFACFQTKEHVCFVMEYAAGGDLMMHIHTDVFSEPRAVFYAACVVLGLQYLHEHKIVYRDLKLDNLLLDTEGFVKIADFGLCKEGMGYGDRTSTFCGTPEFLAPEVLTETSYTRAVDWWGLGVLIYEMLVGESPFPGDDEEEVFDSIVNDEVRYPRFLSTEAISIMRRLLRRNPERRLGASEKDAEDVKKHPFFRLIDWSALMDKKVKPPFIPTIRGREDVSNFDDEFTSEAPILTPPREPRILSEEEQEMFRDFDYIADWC

Compound: N[C@H](CNC(=O)C1(c2ccc(Cl)cc2)CCCC1)c1ccc(C(=O)Nc2ccncc2)cc1 [CP612]
- Inhibition of conventional PKCβII (PKCβII): weakly inhibited
- remaining binding at 0.2 µM (PKN1 (Protein kinase N1)): < 10%
- scanMax % of control, PKN2 (PKN2): < 10 % of control
- solubility kinetic at 3 h ([1]; 0.1M phosphate-buffered saline (PBS), aqueous buffer, kinetic from dmso stock, 0.1M PBS, room temperature, 3 hours, read-out: Kinetic aqueous solubility): 7410 ± 120 nM (≈ 3.43 µg/mL)
- solubility kinetic at 3 h ([1]; 0.1M phosphate-buffered saline (PBS), aqueous buffer, kinetic from dmso stock, mean of 3 samples, read-out: Kinetic aqueous solubility, Corrected (nM), Mean): 7410 nM (≈ 3.43 µg/mL)
- solubility kinetic at 3 h ([1]; 0.1M phosphate-buffered saline (PBS), aqueous buffer, kinetic from dmso stock, single sample, read-out: Kinetic aqueous solubility, Corrected): 7540 nM (≈ 3.49 µg/mL)
- solubility kinetic at 3 h ([1]; single sample, read-out: Kinetic aqueous solubility, Corrected): 7309.08 nM and 7388.24 nM
- Effect on pain thresholds after repeated saline ([2]; male and female mice, CP612 20 mg/kg i.p.): not modified
- Effect on development of morphine-withdrawal hyperalgesia ([2]; male and female mice, CP612 20 mg/kg i.p. 6 hours after last morphine injection): prevented
- von Frey filament number that led to paw withdrawal ([2]; female mice, Morphine schedule, 1week): 9 and 8
- von Frey filament number that led to paw withdrawal ([2]; female mice, Morphine schedule, 2weeks): 8.75
- von Frey filament number that led to paw withdrawal ([2]; female mice, Morphine schedule, 3weeks): 8.5
- von Frey filament number that led to paw withdrawal ([2]; female mice, Morphine schedule, 4weeks): 8.5
- von Frey filament number that led to paw withdrawal ([2]; female mice, Morphine schedule, 24h): 7.5 and 9.5
- von Frey filament number that led to paw withdrawal ([2]; female mice, Morphine schedule, Baseline): 9 and 9.5
- von Frey filament number that led to paw withdrawal ([2]; female mice, Saline schedule, 1week): 9.5 and 9 and 8.5 and 10
- von Frey filament number that led to paw withdrawal ([2]; female mice, Saline schedule, 2weeks): 9.5 and 9 and 10
- von Frey filament number that led to paw withdrawal ([2]; female mice, Saline schedule, 3weeks): 9 and 9.5 and 10
- von Frey filament number that led to paw withdrawal ([2]; female mice, Saline schedule, 4weeks): 9.5 and 9 and 10
- von Frey filament number that led to paw withdrawal ([2]; female mice, Saline schedule, 24h): 9 and 8 and 8.5 and 10
- von Frey filament number that led to paw withdrawal ([2]; female mice, Saline schedule, Baseline): 9.5 and 8.5 and 9 and 10 and 10.5
- von Frey filament number that led to paw withdrawal ([2]; male mice, Morphine schedule, 1week): 9.5 and 7.5 and 8.5 and 9 and 8 and 10
- von Frey filament number that led to paw withdrawal ([2]; male mice, Morphine schedule, 2weeks): 9 and 7.5 and 8 and 9.5 and 9.25 and 7.75 and 10.5
- von Frey filament number that led to paw withdrawal ([2]; male mice, Morphine schedule, 3weeks): 8 and 9 and 9.5 and 10.5
- von Frey filament number that led to paw withdrawal ([2]; male mice, Morphine schedule, 4weeks): 8 and 7.5 and 9.5 and 9 and 11 and 10
- von Frey filament number that led to paw withdrawal ([2]; male mice, Morphine schedule, 24h): 8.5 and 7.5 and 9.5 and 8 and 7 and 10.5
- von Frey filament number that led to paw withdrawal ([2]; male mice, Morphine schedule, Baseline): 7.5 and 7 and 8.5 and 9.5 and 9
- von Frey filament number that led to paw withdrawal ([2]; male mice, Saline schedule, 1week): 9 and 8.5 and 9.5 and 10.5 and 10
- von Frey filament number that led to paw withdrawal ([2]; male mice, Saline schedule, 2weeks): 6.5 and 7 and 9 and 8.5 and 8 and 9.5 and 10
- von Frey filament number that led to paw withdrawal ([2]; male mice, Saline schedule, 3weeks): 9.5 and 9 and 10
- von Frey filament number that led to paw withdrawal ([2]; male mice, Saline schedule, 4weeks): 8 and 6.5 and 6 and 9 and 7.5 and 9.5 and 10 and 10.5
- von Frey filament number that led to paw withdrawal ([2]; male mice, Saline schedule, 24h): 7.5 and 7 and 9 and 9.5 and 10
- von Frey filament number that led to paw withdrawal ([2]; male mice, Saline schedule, Baseline): 7.5 and 8.5 and 6.5 and 8 and 9 and 9.5 and 10.5
- Duration of prevention of hyperalgesia after administration ([2]; single dose CP612 20 mg/kg i.p.): up to 4 weeks
